# Experimental data taken from the supplement of paper PMC10307832.
# Legend:
# Assay in all cases: relative viability (nuclei count vs DMSO), 5 days (fraction); higher = more cells survive
# [1] = system: LK-2
# How it was run: (§1)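 Five library-drug doses in √10 steps were combined with a fixed anchor-drug dose, or a single drug was given alone, by pin tool to lung cancer cell lines in 1536-well plates the day after seeding. Nuclei were stained and counted after 5 days. Relative viability is the nuclei count in treated wells over that in vehicle wells, taken as the median of duplicate plates.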
# [2] = system: 201T
# How it was run: as §1
# [3] = system: PC-14
# How it was run: as §1
# [4] = system: NCI-H2170
# How it was run: as §1
# [5] = system: HARA
# How it was run: as §1
# [6] = system: EKVX
# How it was run: as §1
# [7] = system: NCI-H3122
# How it was run: as §1
# [8] = system: BEN
# How it was run: as §1
# [9] = system: COR-L23
# How it was run: as §1
# [10] = system: NCI-H727
# How it was run: as §1
# [11] = system: NCI-H2009
# How it was run: as §1
# [12] = system: NCI-H441
# How it was run: as §1
# [13] = system: CAL-12T
# How it was run: as §1
# [14] = system: COR-L 105
# How it was run: as §1
# [15] = system: SW 900
# How it was run: as §1
# [16] = system: LU99A
# How it was run: as §1
# [17] = system: NCI-H1437
# How it was run: as §1
# [18] = system: HCC-366
# How it was run: as §1
# [19] = system: ABC-1
# How it was run: as §1
# [20] = system: NCI-H838
# How it was run: as §1
# [21] = system: NCI-H661
# How it was run: as §1
# [22] = system: NCI-H1666
# How it was run: as §1
# [23] = system: NCI-H1650
# How it was run: as §1
structure (smiles),measurement,setting,value
CC1(C)CCC(c2ccc(Cl)cc2)=C(CN2CCN(c3ccc(C(=O)NS(=O)(=O)c4ccc(N[C@H](CCN5CCOCC5)CSc5ccccc5)c(S(=O)(=O)C(F)(F)F)c4)cc3)CC2)C1 [Navitoclax] + N=C(N)NC(=N)NCCc1ccccc1 [Phenformin] (partner 250 µM),relative viability,[1]; first compound 0.005 µM,0.417
same,relative viability,[1]; first compound 0.01581 µM,0.551
same,relative viability,[1]; first compound 0.05 µM,0.379
same,relative viability,[1]; first compound 0.1581 µM,0.353
same,relative viability,[1]; first compound 0.5 µM,0.395
same,relative viability,[2]; first compound 0.005 µM,0.447
same,relative viability,[2]; first compound 0.01581 µM,0.458
same,relative viability,[2]; first compound 0.05 µM,0.456
same,relative viability,[2]; first compound 0.1581 µM,0.438
same,relative viability,[2]; first compound 0.5 µM,0.492
same,relative viability,[3]; first compound 0.005 µM,0.611
same,relative viability,[3]; first compound 0.01581 µM,0.598
same,relative viability,[3]; first compound 0.05 µM,0.57
same,relative viability,[3]; first compound 0.1581 µM,0.541
same,relative viability,[3]; first compound 0.5 µM,0.616
same,relative viability,[4]; first compound 0.005 µM,0.442
same,relative viability,[4]; first compound 0.01581 µM,0.47
same,relative viability,[4]; first compound 0.05 µM,0.391
same,relative viability,[4]; first compound 0.1581 µM,0.42
same,relative viability,[4]; first compound 0.5 µM,0.347
same,relative viability,[5]; first compound 0.005 µM,0.491
same,relative viability,[5]; first compound 0.01581 µM,0.554
same,relative viability,[5]; first compound 0.1581 µM,0.415
same,relative viability,[5]; first compound 0.5 µM,0.477
same,relative viability,[6]; first compound 0.005 µM,0.262
same,relative viability,[6]; first compound 0.01581 µM,0.238
same,relative viability,[6]; first compound 0.05 µM,0.226
same,relative viability,[6]; first compound 0.1581 µM,0.239
same,relative viability,[6]; first compound 0.5 µM,0.235
same,relative viability,[7]; first compound 0.005 µM,0.402
same,relative viability,[7]; first compound 0.01581 µM,0.423
same,relative viability,[7]; first compound 0.05 µM,0.306
same,relative viability,[7]; first compound 0.1581 µM,0.348
same,relative viability,[7]; first compound 0.5 µM,0.391
same,relative viability,[8]; first compound 0.005 µM,0.246
same,relative viability,[8]; first compound 0.01581 µM,0.265
same,relative viability,[8]; first compound 0.05 µM,0.248
same,relative viability,[8]; first compound 0.1581 µM,0.294
same,relative viability,[8]; first compound 0.5 µM,0.232
same,relative viability,[9]; first compound 0.005 µM,0.409
same,relative viability,[9]; first compound 0.01581 µM,0.494
same,relative viability,[9]; first compound 0.05 µM,0.516
same,relative viability,[9]; first compound 0.1581 µM,0.438
same,relative viability,[9]; first compound 0.5 µM,0.447
same,relative viability,[10]; first compound 0.01581 µM,0.804
same,relative viability,[10]; first compound 0.1581 µM,0.479
same,relative viability,[10]; first compound 0.5 µM,0.394
same,relative viability,[11]; first compound 0.005 µM,0.495
same,relative viability,[11]; first compound 0.01581 µM,0.519
same,relative viability,[11]; first compound 0.05 µM,0.435
same,relative viability,[11]; first compound 0.1581 µM,0.47
same,relative viability,[11]; first compound 0.5 µM,0.484
same,relative viability,[12]; first compound 0.005 µM,0.919
same,relative viability,[12]; first compound 0.01581 µM,1.14
same,relative viability,[12]; first compound 0.05 µM,0.846
same,relative viability,[12]; first compound 0.1581 µM,0.851
same,relative viability,[12]; first compound 0.5 µM,0.818
same,relative viability,[13]; first compound 0.005 µM,0.527
same,relative viability,[13]; first compound 0.01581 µM,0.655
same,relative viability,[13]; first compound 0.05 µM,0.6
same,relative viability,[13]; first compound 0.1581 µM,0.503
same,relative viability,[13]; first compound 0.5 µM,0.582
same,relative viability,[14]; first compound 0.005 µM,0.464
same,relative viability,[14]; first compound 0.01581 µM,0.746
same,relative viability,[14]; first compound 0.05 µM,0.431
same,relative viability,[14]; first compound 0.1581 µM,0.503
same,relative viability,[14]; first compound 0.5 µM,0.405
same,relative viability,[15]; first compound 0.005 µM,0.484
same,relative viability,[15]; first compound 0.01581 µM,0.638
same,relative viability,[15]; first compound 0.05 µM,0.586
same,relative viability,[15]; first compound 0.1581 µM,0.556
same,relative viability,[15]; first compound 0.5 µM,0.41
same,relative viability,[16]; first compound 0.005 µM,0.878
same,relative viability,[16]; first compound 0.01581 µM,0.993
same,relative viability,[16]; first compound 0.05 µM,0.726
same,relative viability,[16]; first compound 0.1581 µM,0.829
same,relative viability,[16]; first compound 0.5 µM,0.928
same,relative viability,[17]; first compound 0.005 µM,0.269
same,relative viability,[17]; first compound 0.01581 µM,0.333
same,relative viability,[17]; first compound 0.05 µM,0.334
same,relative viability,[17]; first compound 0.1581 µM,0.314
same,relative viability,[17]; first compound 0.5 µM,0.41
same,relative viability,[18]; first compound 0.005 µM,0.708
same,relative viability,[18]; first compound 0.01581 µM,0.616
same,relative viability,[18]; first compound 0.1581 µM,0.619
same,relative viability,[18]; first compound 0.5 µM,0.588
same,relative viability,[19]; first compound 0.005 µM,0.245
same,relative viability,[19]; first compound 0.01581 µM,0.292
same,relative viability,[19]; first compound 0.05 µM,0.277
same,relative viability,[19]; first compound 0.1581 µM,0.257
same,relative viability,[19]; first compound 0.5 µM,0.215
same,relative viability,[20]; first compound 0.005 µM,0.529
same,relative viability,[20]; first compound 0.01581 µM,0.735
same,relative viability,[20]; first compound 0.05 µM,0.757
same,relative viability,[20]; first compound 0.1581 µM,0.749
same,relative viability,[20]; first compound 0.5 µM,0.664
same,relative viability,[21]; first compound 0.005 µM,0.253
same,relative viability,[21]; first compound 0.01581 µM,0.298
same,relative viability,[21]; first compound 0.05 µM,0.262
same,relative viability,[21]; first compound 0.1581 µM,0.257
same,relative viability,[21]; first compound 0.5 µM,0.258
same,relative viability,[22]; first compound 0.005 µM,0.604
same,relative viability,[22]; first compound 0.01581 µM,0.573
same,relative viability,[22]; first compound 0.05 µM,0.511
same,relative viability,[22]; first compound 0.1581 µM,0.534
same,relative viability,[22]; first compound 0.5 µM,0.559
same,relative viability,[23]; first compound 0.005 µM,0.358
same,relative viability,[23]; first compound 0.01581 µM,0.606
same,relative viability,[23]; first compound 0.05 µM,0.404
same,relative viability,[23]; first compound 0.1581 µM,0.36
same,relative viability,[23]; first compound 0.5 µM,0.313
